Reference: patent publication US10065990B2, “Cyclic peptide compound, and preparation method, pharmaceutical composition and use thereof” (HANGZHOU GUANYU BIO-MEDICAL CO., LTD, priority 2013, dated 2018)
Like-named read-outs stand apart in the source and are kept apart here.

Key:
[1] = test system: MDA-MB-231 (breast cancer cells); assay: MTT cancer cell growth inhibition; assay type: cell-based
Source text: (§1) MTT assay principle is yellow MTT can penetrate membrane into the cell, succinic dehydrogenase of the mitochondria in living cells can make exogenous MTT reduction of insoluble in water of blue-violet acicular formazan for crystallization and deposition in the cell, crystallization can be dissolved dimethyl sulfoxide (DMSO) solution, detected its absorbance at 490 nm/570 nm wavelength by enzyme-linked immunosorbent assay, which can reflect the number of cells.
(§2) Using DMEM+10% FBS culture medium or using 1640+10% FBS culture, respectively.
(§3) a) Cells were seeded in 96-well plates with the inoculation of 1500/well, 190 μl/hole, 37° C., 5% of CO2 incubator overnight;
(§4) b) The next day each well was added 10 μl of different drugs. The final concentration of drug was 10^−5˜10^−10M, three parallel holes; 37° C., 5% CO2 culture incubator for 72 hours incubation;
(§5) c) Per well was added 20 μl 5 mg/ml of MTT, 37° C., 5% CO2 culture incubator for 4 hours incubation;
(§6) d) The supernatant was discarded. Each well was added 100 μl of DMSO and oscillation;
(§7) e) 570 nm readings. Calculate cell viability. GI50 calculation based on the results.

[2] = test system: Bel-7402 (human hepatoma cells); assay: MTT cancer cell growth inhibition; assay type: cell-based; conditions: MTT, 72 hours incubation, Bel-7402 cells, read-out: GI50 Bel-7402
Source text: as §1, §2, §3, §4, §5, §6, §7

[3] = test system: KBM5-T315I (human chronic myelogenous leukemia); assay: MTT cancer cell growth inhibition; assay type: cell-based; conditions: MTT, 72 hours incubation, KBM5-T315I cells, read-out: GI50 KBM5-T315I
Source text: as §1, §2, §3, §4, §5, §6, §7

[4] = test system: BGC-823 (human gastric cancer cells); assay: MTT cancer cell growth inhibition; assay type: cell-based; conditions: MTT, 72 hours incubation, read-out: GI50 BG
Source text: as §1, §2, §3, §4, §5, §6, §7

[5] = test system: Hela (human cervical cancer cells); assay: MTT cancer cell growth inhibition; assay type: cell-based; conditions: MTT, 72 hours incubation, read-out: GI50 Hela
Source text: as §1, §2, §3, §4, §5, §6, §7

[6] = test system: Huh-7 (human hepatoma cells); assay: MTT cancer cell growth inhibition; assay type: cell-based; conditions: MTT, 72 hours incubation, Huh-7 cells, read-out: GI50 Huh-7
Source text: as §1, §2, §3, §4, §5, §6, §7

[7] = test system: K562 (human leukemia cells); assay: MTT cancer cell growth inhibition; assay type: cell-based; conditions: MTT, 72 hours incubation, K562 cells, read-out: GI50 K562
Source text: as §1, §2, §3, §4, §5, §6, §7

[8] = test system: HT1080 (human fibrosarcoma cells); assay: MTT cancer cell growth inhibition; assay type: cell-based; conditions: MTT, 72 hours incubation, read-out: GI50 HT1
Source text: as §1, §2, §3, §4, §5, §6, §7

[9] = test system: DU145 (human prostate cancer cells); assay: MTT cancer cell growth inhibition; assay type: cell-based; conditions: MTT, 72 hours incubation, read-out: GI50 Du1
Source text: as §1, §2, §3, §4, §5, §6, §7

[10] = test system: KBM-5 (human chronic myelogenous leukemia); assay: MTT cancer cell growth inhibition; assay type: cell-based; conditions: MTT, 72 hours incubation, KBM-5 cells, read-out: GI50 KBM-5
Source text: as §1, §2, §3, §4, §5, §6, §7

[11] = test system: MOLT-4 (human acute lymphoblastic leukemia cells); assay: MTT cancer cell growth inhibition; assay type: cell-based; conditions: MTT, 72 hours incubation, read-out: GI50 Mol
Source text: as §1, §2, §3, §4, §5, §6, §7

[12] = test system: MCF-7 (human breast cancer cells); assay: MTT cancer cell growth inhibition; assay type: cell-based; conditions: 72 hours incubation, read-out: GI50 MCF
Source text: as §1, §2, §3, §4, §5, §6, §7

[13] = test system: U937 (human leukemia cells); assay: MTT cancer cell growth inhibition; assay type: cell-based; conditions: MTT, 72 hours incubation, read-out: GI50 U93
Source text: as §1, §2, §3, §4, §5, §6, §7

[14] = test system: SGC-7901 (human gastric cancer cells); assay: MTT cancer cell growth inhibition; assay type: cell-based; conditions: MTT, 72 hours incubation, SGC-7901 cells, read-out: GI50 SGC-7901
Source text: as §1, §2, §3, §4, §5, §6, §7

[15] = test system: lncap (prostate cancer cells); assay: MTT cancer cell growth inhibition; assay type: cell-based; conditions: MTT, 72 hours incubation, read-out: GI50 lnca
Source text: as §1, §2, §3, §4, §5, §6, §7

[16] = test system: H1975 (non-small cell lung adenocarcinoma); assay: MTT cancer cell growth inhibition; assay type: cell-based; conditions: MTT, 72 hours incubation, H1975 cells, read-out: GI50 H1975
Source text: as §1, §2, §3, §4, §5, §6, §7

[17] = test system: A549 (human lung cancer cells); assay: MTT cancer cell growth inhibition; assay type: cell-based; conditions: MTT, 72 hours incubation, read-out: GI50 A54
Source text: as §1, §2, §3, §4, §5, §6, §7

[18] = test system: HCC827 (human non-small cell lung cancer cells); assay: MTT cancer cell growth inhibition; assay type: cell-based; conditions: MTT, 72 hours incubation, HCC827 cells, read-out: GI50 HCC827
Source text: as §1, §2, §3, §4, §5, §6, §7

[19] = test system: PANC-1 (Pac-1, human pancreatic cancer cells); assay: MTT cancer cell growth inhibition; assay type: cell-based; conditions: MTT, 72 hours incubation, read-out: GI50 PAN
Source text: as §1, §2, §3, §4, §5, §6, §7

HDAC7 = molecular target: T1, HDAC7 (Homo sapiens, UniProt Q8WUI4); assay: HDAC biochemical activity measurement (fluorescent substrate deacetylation);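 further: fluorogenic deacetylation assay using acetyl-lysine substrate at 20 µM, enzyme and compound incubated 30 min at 37 °C, then developer added, fluorescence read at 360/460 nm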; conditions: HDAC7; 37° C. 30 minutes
T1 sequence (Q8WUI4 1-952): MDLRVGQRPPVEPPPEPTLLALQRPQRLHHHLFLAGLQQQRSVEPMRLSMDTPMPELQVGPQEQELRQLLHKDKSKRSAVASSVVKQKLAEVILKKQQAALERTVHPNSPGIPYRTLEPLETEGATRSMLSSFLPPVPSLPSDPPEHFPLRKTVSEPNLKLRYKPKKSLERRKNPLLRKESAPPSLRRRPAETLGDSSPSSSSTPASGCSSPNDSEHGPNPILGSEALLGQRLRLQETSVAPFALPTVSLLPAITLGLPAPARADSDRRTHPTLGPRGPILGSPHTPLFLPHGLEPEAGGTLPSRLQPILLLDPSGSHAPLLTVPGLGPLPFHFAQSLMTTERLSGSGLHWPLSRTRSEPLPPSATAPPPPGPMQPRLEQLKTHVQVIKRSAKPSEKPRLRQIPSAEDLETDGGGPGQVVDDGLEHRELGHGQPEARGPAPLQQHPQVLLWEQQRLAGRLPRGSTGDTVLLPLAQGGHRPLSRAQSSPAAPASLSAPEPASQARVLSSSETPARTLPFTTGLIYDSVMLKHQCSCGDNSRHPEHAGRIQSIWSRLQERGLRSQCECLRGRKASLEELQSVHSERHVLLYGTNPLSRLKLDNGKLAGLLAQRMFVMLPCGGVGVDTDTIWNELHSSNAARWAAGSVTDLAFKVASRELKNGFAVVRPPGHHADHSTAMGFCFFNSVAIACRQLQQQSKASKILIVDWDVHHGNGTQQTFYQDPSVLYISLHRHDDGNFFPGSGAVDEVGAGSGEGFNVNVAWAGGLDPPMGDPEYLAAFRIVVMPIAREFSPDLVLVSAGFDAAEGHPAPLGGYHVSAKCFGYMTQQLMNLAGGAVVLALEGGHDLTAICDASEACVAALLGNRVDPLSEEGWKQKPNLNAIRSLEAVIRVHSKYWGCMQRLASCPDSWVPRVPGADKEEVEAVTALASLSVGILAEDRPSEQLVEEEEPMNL

[20] = test system: N-87 (human gastric cancer cells); assay: MTT cancer cell growth inhibition; assay type: cell-based; conditions: MTT, 72 hours incubation, N-87 cells, read-out: GI50 N-87
Source text: as §1, §2, §3, §4, §5, §6, §7

[21] = Homo sapiens, MDA-MB-231, 72 h, read-out: GI50 MDA-MB-231, MTT, 72 hours incubation, MDA-MB-231 cells

Row | SMILES | GI50 [1, 21] [nM] | GI50 ([2]; Homo sapiens, Bel-7402, 72 h) [nM] | GI50 ([3]; Homo sapiens, 72 h) [nM] | GI50 [4] [nM] | GI50 [5] [nM] | GI50 ([6]; Homo sapiens, Huh-7, 72 h) [nM] | GI50 ([7]; Homo sapiens, K562, 72 h) [nM] | GI50 [8] [nM] | GI50 [9] [nM] | GI50 ([10]; Homo sapiens, KBM5, 72 h) [nM] | GI50 [11] [nM] | GI50 [12] [nM] | GI50 [13] [nM] | GI50 ([14]; Homo sapiens, SGC-7901, 72 h) [nM] | GI50 [15] [nM] | GI50 ([16]; Homo sapiens, NCI-H1975, 72 h) [nM] | GI50 [17] [nM] | GI50 ([18]; Homo sapiens, HCC827, 72 h) [nM] | GI50 [19] [nM] | IC50 HDAC7 (HDAC7) | other results
1 | C/C=C1\NC(=O)c2nc(ccc2F)CNC(=O)C[C@@H](/C=C/CCSC(C)=O)OC(=O)[C@H](C(C)C)NC1=O [Compound 93] | 38 | 34 | 34 | 20 | 50 | 38 | 37 | 30 | 30 | 53 | 30 | 30 | 20 | 68 | 30 | 27 | 60 | 34 | 30 | no activity | 
2 | C/C=C1\NC(=O)c2cc(F)cc(n2)CNC(=O)C[C@@H](/C=C/CCS)OC(=O)[C@H](CC)NC1=O [Compound 110] | 13 | 62 | 29 |  |  | 48 | 17 |  |  | 41 |  |  |  | 57 |  | 59 |  | 62 |  | no activity | GI50 ([4]; Homo sapiens, BGC-823, 72 h): 30 nM; GI50 ([5]; Homo sapiens, HeLa, 72 h): 60 nM; GI50 ([8]; Homo sapiens, HT-1080, 72 h): 70 nM; GI50 ([9]; Homo sapiens, DU-145, 72 h): 50 nM; GI50 ([11]; Homo sapiens, MOLT-4, 72 h): 30 nM; GI50 ([12]; Homo sapiens, MCF7, 72 h): 30 nM; GI50 ([13]; Homo sapiens, U-937, 72 h): 60 nM; GI50 ([15]; Homo sapiens, LNCaP, 72 h): 30 nM; GI50 ([20]; Homo sapiens, 72 h): 35 nM; GI50 ([17]; Homo sapiens, A549, 72 h): 60 nM
3 | C/C=C1\NC(=O)c2nc(ccc2F)CNC(=O)C[C@@H](/C=C/CCSC(C)=O)OC(=O)[C@H](CC)NC1=O [Example 57] |  |  |  |  |  |  |  |  |  |  |  |  |  |  |  |  |  |  |  |  | GI50 ([1]; read-out: GI50 MDA-MB-231, MTT, 72 hours incubation, MDA-MB-231 cells): 28 nM; GI50 [2]: 73 nM; GI50 [3]: 54 nM; GI50 [6]: 28 nM; GI50 [7]: 35 nM; GI50 [10]: 74 nM; GI50 [14]: 92 nM; GI50 [16]: 55 nM; GI50 [20]: 53 nM; GI50 [18]: 73 nM
4 | C/C=C1\NC(=O)c2ccc(F)c(n2)CNC(=O)C[C@@H](/C=C/CCSC(C)=O)OC(=O)[C@H](C(C)C)NC1=O (single isomer, unassigned) [Example 50] |  |  |  | 60 | 70 |  |  | 80 | 40 |  | 20 | 60 | 30 |  | 20 |  | 30 |  | 80 | no activity | 
5 | C/C=C1\NC(=O)c2ccc(F)c(n2)CNC(=O)C[C@@H](/C=C/CCSC(C)=O)OC(=O)[C@H](C(C)C)NC1=O [Compound 95] | 22 | 83 | 38 | 20 |  | 22 | 26 |  |  | 76 |  |  |  | 42 |  | 35 |  | 83 |  | no activity | GI50 ([5]; Homo sapiens, HeLa, 72 h): 70 nM; GI50 ([8]; Homo sapiens, HT-1080, 72 h): 80 nM; GI50 ([9]; Homo sapiens, DU-145, 72 h): 20 nM; GI50 ([11]; Homo sapiens, MOLT-4, 72 h): 20 nM; GI50 ([12]; Homo sapiens, MCF7, 72 h): 30 nM; GI50 ([13]; Homo sapiens, U-937, 72 h): 30 nM; GI50 ([15]; Homo sapiens, LNCaP, 72 h): 20 nM; GI50 ([17]; Homo sapiens, A549, 72 h): 40 nM; GI50 ([19]; Homo sapiens, PANC-1, 72 h): 80 nM
